Measured values as given in ChEMBL document CHEMBL5608186, “Design, synthesis and structure-activity relationships of novel non-ketolides: 9-Oxime clarithromycin featured with seven-to thirteen-atom-length diamine linkers at 3-OH” (Eur J Med Chem, 2024).
≈ marks a conversion by molar mass, not a printed value.

Experiments:
Format in all cases: functional
Staphylococcus aureus [1] = assay: Antibacterial activity against methicillin-resistant Staphylococcus aureus PU 32 harboring i-ermA gene incubated for 16 to 20 hrs by CLSI based broth microdilution method; conditions: time 16-20 hrs
Streptococcus pneumoniae [2] = assay: Bactericidal activity against Streptococcus pneumoniae ATCC 49619 incubated for 16 to 20 hrs by CLSI based broth microdilution method; conditions: time 16-20 hrs
Streptococcus pneumoniae [3] = assay: Antibacterial activity against Streptococcus pneumoniae PU 09 harboring mef gene incubated for 16 to 20 hrs by CLSI based broth microdilution method; conditions: time 16-20 hrs
Streptococcus pneumoniae [4] = assay: Antibacterial activity against Streptococcus pneumoniae ATCC 49619 incubated for 16 to 20 hrs by CLSI based broth microdilution method; conditions: time 16-20 hrs
Streptococcus pyogenes [5] = assay: Selectivity ratio of MBC for Streptococcus pyogenes 01-968 harboring i-ermB gene to MIC for Streptococcus pyogenes 01-968 harboring i-ermB gene
Streptococcus pneumoniae [6] = assay: Bactericidal activity against Streptococcus pneumoniae 07P390 harboring c-erm gene incubated for 16 to 20 hrs by CLSI based broth microdilution method; conditions: time 16-20 hrs
Streptococcus pyogenes [7] = assay: Bactericidal activity against Streptococcus pyogenes 01-968 harboring i-ermB gene incubated for 16 to 20 hrs by CLSI based broth microdilution method; conditions: time 16-20 hrs
Streptococcus pneumoniae [8] = assay: Selectivity ratio of MBC for Streptococcus pneumoniae 07P390 harboring c-erm gene to MIC for Streptococcus pneumoniae 07P390 harboring c-erm gene
Streptococcus pneumoniae [9] = assay: Bactericidal activity against Streptococcus pneumoniae PU 09 harboring mef gene incubated for 16 to 20 hrs by CLSI based broth microdilution method; conditions: time 16-20 hrs
Streptococcus pneumoniae [10] = assay: Antibacterial activity against Streptococcus pneumoniae 07P390 harboring c-erm gene incubated for 16 to 20 hrs by CLSI based broth microdilution method; conditions: time 16-20 hrs
Haemophilus influenzae [11] = assay: Bactericidal activity against Haemophilus influenzae ATCC 49247 incubated for 16 to 20 hrs by CLSI based broth microdilution method; conditions: time 16-20 hrs
Staphylococcus aureus [12] = assay: Bactericidal activity against methicillin-resistant Staphylococcus aureus PU 20 harboring c-ermA gene incubated for 16 to 20 hrs by CLSI based broth microdilution method; conditions: time 16-20 hrs
Streptococcus pneumoniae [13] = assay: Selectivity ratio of MBC for Streptococcus pneumoniae ATCC 49619 to MIC for Streptococcus pneumoniae ATCC 49619
Haemophilus influenzae [14] = assay: Antibacterial activity against Haemophilus influenzae ATCC 49247 incubated for 16 to 20 hrs by CLSI based broth microdilution method; conditions: time 16-20 hrs
Staphylococcus aureus [15] = assay: Antibacterial activity against methicillin-resistant Staphylococcus aureus PU 20 harboring c-ermA gene incubated for 16 to 20 hrs by CLSI based broth microdilution method; conditions: time 16-20 hrs
Staphylococcus aureus [16] = assay: Selectivity ratio of MBC for methicillin-resistant Staphylococcus aureus PU 32 harboring i-ermA gene to MIC for methicillin-resistant Staphylococcus aureus PU 32 harboring i-ermA gene
Streptococcus pneumoniae [17] = assay: Selectivity ratio of MBC for Streptococcus pneumoniae PU 09 harboring mef gene to MIC for Streptococcus pneumoniae PU 09 harboring mef gene
Staphylococcus aureus [18] = assay: Bactericidal activity against methicillin-resistant Staphylococcus aureus PU 32 harboring i-ermA gene incubated for 16 to 20 hrs by CLSI based broth microdilution method; conditions: time 16-20 hrs
Streptococcus pyogenes [19] = assay: Antibacterial activity against Streptococcus pyogenes 01-968 harboring i-ermB gene incubated for 16 to 20 hrs by CLSI based broth microdilution method; conditions: time 16-20 hrs
Haemophilus influenzae [20] = assay: Selectivity ratio of MBC for Haemophilus influenzae ATCC 49247 to MIC for Haemophilus influenzae ATCC 49247

Row | SMILES | MIC (Staphylococcus aureus [1]) | MBC (Streptococcus pneumoniae [2]) | MIC (Streptococcus pneumoniae [3]) | MIC (Streptococcus pneumoniae [4]) | Selectivity ratio (Streptococcus pyogenes [5]) | MBC (Streptococcus pneumoniae [6]) | MBC (Streptococcus pyogenes [7]) | Selectivity ratio (Streptococcus pneumoniae [8]) | MBC (Streptococcus pneumoniae [9]) | MIC (Streptococcus pneumoniae [10]) | MBC (Haemophilus influenzae [11]) | MBC (Staphylococcus aureus [12]) | Selectivity ratio (Streptococcus pneumoniae [13]) | MIC (Haemophilus influenzae [14]) | MIC (Staphylococcus aureus [15]) | Selectivity ratio (Staphylococcus aureus [16]) | Selectivity ratio (Streptococcus pneumoniae [17]) | MBC (Staphylococcus aureus [18]) | MIC (Streptococcus pyogenes [19]) | Selectivity ratio (Haemophilus influenzae [20])
1 | CC[C@H]1OC(=O)[C@H](C)[C@@H](OC(=O)CCNCCCCNc2cc3c(cc2F)c(=O)c(C(=O)O)cn3C2CC2)[C@H](C)[C@@H](O[C@@H]2O[C@H](C)C[C@H](N(C)C)[C@H]2O)[C@](C)(OC)C[C@@H](C)/C(=N\OC)[C@H](C)[C@H]2OC(=O)O[C@@]21C | 4 µg/mL (≈ 3.88 µM) | 0.125 µg/mL (≈ 0.121 µM) | 0.5 µg/mL (≈ 0.484 µM) | 0.062 µg/mL (≈ 0.0601 µM) | 2 | 16 µg/mL (≈ 15.5 µM) | 0.016 µg/mL (≈ 0.0155 µM) | 2 | 0.5 µg/mL (≈ 0.484 µM) | 8 µg/mL (≈ 7.75 µM) | 32 µg/mL (≈ 31 µM) | > 256 µg/mL | 2 | 16 µg/mL (≈ 15.5 µM) | 128 µg/mL (≈ 124 µM) | 2 | 1 | 8 µg/mL (≈ 7.75 µM) | ≤ 0.008 µg/mL | 2
2 | CC[C@H]1OC(=O)[C@H](C)[C@@H](OC(=O)CCNCCCCNc2cc3c(cc2F)c(=O)c(C(=O)O)cn3C2CC2)[C@H](C)[C@@H](O[C@@H]2O[C@H](C)C[C@H](N(C)C)[C@H]2O)[C@](C)(OC)C[C@@H](C)/C(=N\OCC#Cc2cncc(NC(C)=O)c2)[C@H](C)[C@H]2OC(=O)O[C@@]21C | 32 µg/mL (≈ 26.9 µM) | 0.016 µg/mL (≈ 0.0134 µM) | 0.03 µg/mL (≈ 0.0252 µM) | 0.016 µg/mL (≈ 0.0134 µM) | >8 | 0.5 µg/mL (≈ 0.42 µM) | > 4 µg/mL | 8 | 0.03 µg/mL (≈ 0.0252 µM) | 0.06 µg/mL (≈ 0.0504 µM) | 4 µg/mL (≈ 3.36 µM) | > 256 µg/mL | 1 | 4 µg/mL (≈ 3.36 µM) | > 256 µg/mL | 2 | 1 | 64 µg/mL (≈ 53.8 µM) | 0.5 µg/mL (≈ 0.42 µM) | 1
3 | CC[C@H]1OC(=O)[C@H](C)[C@@H](OC(=O)CCNCCCCNc2cc3c(cc2F)c(=O)c(C(=O)O)cn3C2CC2)[C@H](C)[C@@H](O[C@@H]2O[C@H](C)C[C@H](N(C)C)[C@H]2O)[C@](C)(OC)C[C@@H](C)/C(=N\OC/C=C/c2cncc(C(=O)NC)c2)[C@H](C)[C@H]2OC(=O)O[C@@]21C | 32 µg/mL (≈ 26.8 µM) | 0.008 µg/mL (≈ 0.00671 µM) | 0.06 µg/mL (≈ 0.0503 µM) | ≤ 0.008 µg/mL | >8 | 2 µg/mL (≈ 1.68 µM) | > 1 µg/mL | 1 | 0.06 µg/mL (≈ 0.0503 µM) | 2 µg/mL (≈ 1.68 µM) | 4 µg/mL (≈ 3.35 µM) | > 256 µg/mL | >=1 | 2 µg/mL (≈ 1.68 µM) | > 256 µg/mL | >8 | 1 | > 256 µg/mL | 0.12 µg/mL (≈ 0.101 µM) | 2
4 | CC[C@H]1OC(=O)[C@H](C)[C@@H](OC(=O)CCN2CCN(c3cc4c(cc3F)c(=O)c(C(=O)O)cn4CC)CC2)[C@H](C)[C@@H](O[C@@H]2O[C@H](C)C[C@H](N(C)C)[C@H]2O)[C@](C)(OC)C[C@@H](C)/C(=N\OCC#Cc2cncc(C(=O)NC)c2)[C@H](C)[C@H]2OC(=O)O[C@@]21C | 64 µg/mL (≈ 54.4 µM) | 0.12 µg/mL (≈ 0.102 µM) | 0.12 µg/mL (≈ 0.102 µM) | 0.12 µg/mL (≈ 0.102 µM) | >8 | > 64 µg/mL | > 128 µg/mL | >8 | 1 µg/mL (≈ 0.85 µM) | 8 µg/mL (≈ 6.8 µM) | 16 µg/mL (≈ 13.6 µM) | > 256 µg/mL | 1 | 16 µg/mL (≈ 13.6 µM) | > 256 µg/mL | >4 | 8 | > 256 µg/mL | 16 µg/mL (≈ 13.6 µM) | 1
5 | CC[C@H]1OC(=O)[C@H](C)[C@@H](OC(=O)CCNCCCCNc2cc3c(cc2F)c(=O)c(C(=O)O)cn3C2CC2)[C@H](C)[C@@H](O[C@@H]2O[C@H](C)C[C@H](N(C)C)[C@H]2O)[C@](C)(OC)C[C@@H](C)/C(=N\OCCCc2cncc(C(=O)NC)c2)[C@H](C)[C@H]2OC(=O)O[C@@]21C | 32 µg/mL (≈ 26.8 µM) | 0.008 µg/mL (≈ 0.0067 µM) | ≤ 0.008 µg/mL | ≤ 0.008 µg/mL | >8 | 0.12 µg/mL (≈ 0.1 µM) | > 2 µg/mL | 4 | 0.03 µg/mL (≈ 0.0251 µM) | 0.03 µg/mL (≈ 0.0251 µM) | 16 µg/mL (≈ 13.4 µM) | > 256 µg/mL | >=1 | 8 µg/mL (≈ 6.7 µM) | > 256 µg/mL | 1 | >=4 | 32 µg/mL (≈ 26.8 µM) | 0.25 µg/mL (≈ 0.209 µM) | 2
6 | CC[C@H]1OC(=O)[C@H](C)[C@@H](OC(=O)CCNCCCCCCCNc2cc3c(cc2F)c(=O)c(C(=O)O)cn3C2CC2)[C@H](C)[C@@H](O[C@@H]2O[C@H](C)C[C@H](N(C)C)[C@H]2O)[C@](C)(OC)C[C@@H](C)/C(=N\OC)[C@H](C)[C@H]2OC(=O)O[C@@]21C | 2 µg/mL (≈ 1.86 µM) | 0.25 µg/mL (≈ 0.233 µM) | 2 µg/mL (≈ 1.86 µM) | 0.125 µg/mL (≈ 0.116 µM) | 8 | 16 µg/mL (≈ 14.9 µM) | 0.125 µg/mL (≈ 0.116 µM) | 2 | 2 µg/mL (≈ 1.86 µM) | 8 µg/mL (≈ 7.45 µM) | 256 µg/mL (≈ 238 µM) | > 256 µg/mL | 2 | 256 µg/mL (≈ 238 µM) | 128 µg/mL (≈ 119 µM) | 8 | 1 | 16 µg/mL (≈ 14.9 µM) | 0.016 µg/mL (≈ 0.0149 µM) | 1
7 | CC[C@H]1OC(=O)[C@H](C)[C@@H](OC(=O)CCN2CCN(c3cc4c(cc3F)c(=O)c(C(=O)O)cn4C3CC3)CC2)[C@H](C)[C@@H](O[C@@H]2O[C@H](C)C[C@H](N(C)C)[C@H]2O)[C@](C)(OC)C[C@@H](C)/C(=N\OC/C=C/c2cncc(C(=O)NC)c2)[C@H](C)[C@H]2OC(=O)O[C@@]21C | 64 µg/mL (≈ 53.8 µM) | 0.06 µg/mL (≈ 0.0504 µM) | 0.12 µg/mL (≈ 0.101 µM) | 0.03 µg/mL (≈ 0.0252 µM) | >8 | > 16 µg/mL | > 64 µg/mL | >8 | 0.5 µg/mL (≈ 0.42 µM) | 2 µg/mL (≈ 1.68 µM) | 4 µg/mL (≈ 3.36 µM) | > 256 µg/mL | 2 | 4 µg/mL (≈ 3.36 µM) | > 256 µg/mL | >4 | 4 | > 256 µg/mL | 8 µg/mL (≈ 6.72 µM) | 1
